From patent US20220133753A1, “COMPOSITIONS AND METHODS USEFUL FOR TREATING DISEASES CHARACTERIZED BY INSUFFICIENT PANTOTHENATE KINASE ACTIVITY” (Comet Therapeutics, Inc., priority 2016, published 2022)
“Also recorded” adds a separate entry of the source.

Experiments:
[1] = test system: Drosophila w1118 control fly line; experiment: Drosophila HoPan toxicity and CoA rescue experiment (eclosion); format: in vivo; conditions: CoA added to the food of the larvae
Text: Drosophila HoPan Toxicity and CoA Rescue Experiment: One week old w1118 flies (in the ratio 10 females and 5 males) were kept in vials containing standard fly food with or without HoPan and CoA at indicated concentrations. The flies were allowed to lay eggs for 2 days, after which the adults were discarded. The resulting offspring were allowed to develop. The numbers of flies which eclosed were counted to evaluate HoPan toxicity and CoA rescue efficiency.

[2] = test system: homozygous dPANK/fbl1 and dPANK/fblnull mutants; experiment: Drosophila dPANK/fbl mutants, lifespan and development with CoA or Vitamin B5 in the food; format: in vivo, Drosophila melanogaster; conditions: CoA added to the food
Experimental: (§1) Drosophila Maintenance and Crosses: Drosophila melanogaster stocks/crosses were raised on standard cornmeal agar fly food (containing water, agar 17 g/L, sugar 54 g/L, yeast extract 26 g/L and nipagin 1.3 g/L) at 25° C. The stocks were either obtained from the Bloomington Stock Centre (Indiana University, USA), VDRC (Vienna Drosophila RNAi Collection, Vienna, Austria) or from the Exelixis Collection (Harvard Medical School) and rebalanced to generate eGFP-positive balancers. The stocks used were: w1118; dPANK/fbl1 hypomorph5,6; dPANK/fblnull (y[1] w[*]; Mi{y[+mDint2]=MIC}fbl[MI04001]/TM3, Sb[1] Ser[1], Bloomington 36941); dPPCDC mutant (w[1118], PBac{w[+mC]=WH}Ppcdc[f00839]/CyO, Bloomington 18377); UAS-dPPCDCRNAi line (VDRC 104495); dCOASY mutant (PBac{RB}Ppat-Dpck[e00492], Exelixis). The UAS-RNAi constructs were expressed ubiquitously using the Actin-Gal4 drivers (y[1] w[*]; P{w[+mC]=Act5C-GAL4}25FO1/CyO, y[+], Bloomington 4414). […]
(§2) Drosophila Life Span: One-day old adults of Drosophila homozygous mutants or RNAi-constructs expressing lines, were collected with appropriate controls and were kept on standard fly food at 25° C. with or without CoA or Vitamin B5 (Sigma) at necessary concentration (50 ul added on top of the fly food and dried). The flies were counted every 12-24 hrs and flipped to new fly food vials with or without CoA or Vitamin B5.

[3] = test system: homozygous dPPCDC mutants and dPPCDC RNAi expressing flies; experiment: Drosophila dPPCDC mutant and dPPCDC RNAi flies, development, lifespan and fertility with CoA or Vitamin B5; format: in vivo, Drosophila melanogaster
Experimental: as §1, §2
Drosophila Ovary Rescue Experiment: UAS-dPPCDC RNAi constructs were ubiquitously expressed under the control of Actin-Gal4. […] The vials (or plates) from the crosses (with eggs that were being laid during the 4 day period of CoA rescue) were kept for another 10 days and offspring numbers were counted after eclosion.
Drosophila Ovary dissection and staining: Drosophila ovaries were collected in cold PBS and fixed in 4% formaldehyde (from methanol-free 16% Formaldehyde Solution, Thermo Scientific) for 45 min at RT. […] Finally the samples were mounted in 80% glycerol and analyzed on a Zeiss-LSM780 NLO confocal microscope with Zeiss Zen software. […]

[4] = test system: homozygous dCOASY mutants; experiment: Drosophila dCOASY mutants, larval development with CoA or Vitamin B5; format: in vivo, Drosophila melanogaster; conditions: added to the food
Experimental: Drosophila Maintenance and Crosses: Drosophila melanogaster stocks/crosses were raised on standard cornmeal agar fly food (containing water, agar 17 g/L, sugar 54 g/L, yeast extract 26 g/L and nipagin 1.3 g/L) at 25° C. The stocks were either obtained from the Bloomington Stock Centre (Indiana University, USA), VDRC (Vienna Drosophila RNAi Collection, Vienna, Austria) or from the Exelixis Collection (Harvard Medical School) and rebalanced to generate eGFP-positive balancers. The stocks used were: w1118; dPANK/fbl1 hypomorph5,6; dPANK/fblnull (y[1] w[*]; Mi{y[+mDint2]=MIC}fbl[MI04001]/TM3, Sb[1] Ser[1], Bloomington 36941); dPPCDC mutant (w[1118], PBac{w[+mC]=WH}Ppcdc[f00839]/CyO, Bloomington 18377); UAS-dPPCDCRNAi line (VDRC 104495); dCOASY mutant (PBac{RB}Ppat-Dpck[e00492], Exelixis). The UAS-RNAi constructs were expressed ubiquitously using the Actin-Gal4 drivers (y[1] w[*]; P{w[+mC]=Act5C-GAL4}25FO1/CyO, y[+], Bloomington 4414). Heterozygous flies/larvae for the mutants and the Actin-Gal4 driver crossed to isogenic w1118 flies (Actin-Gal4/+) were used as controls for the RNAi-constructs expressing flies.
Drosophila Larval Collection and Larval Count Experiment: One week old flies (in the ratio 10 females and 5 males) were kept on 5 ml of standard fly food in a vial at 25° C. with or without various concentrations of CoA or Vitamin B5 (Sigma). […]

[5] = test system: COASY down-regulated HEK293 cells; experiment: Knock-down of COASY by siRNA in HEK293 cells with CoA; format: cell-based, human; conditions: CoA added to the medium
Experimental: Knock-down of COASY by siRNA in mammalian HEK293 cells: HEK293 were maintained as described above. HEK293 were transfected with 200 nM COASY siRNA (GE Healthcare human COASY 80347 smartpool Cat no: M-006751-00-0010) or non-targeting siRNA (GE Healthcare Cat no: D-001206-13-20) using lipofectamine 2000 (Invitrogen) 4 h after transfection CoA was added in a final concentration of 25 uM. Cells were cultured for 3 days and then harvested for HPLC analysis of total CoA and PPanSH levels and Western blot (histone acetylation) as described below.
Western blot analysis and Antibodies: For Western blot analysis, cells were collected and washed with phosphate buffer saline (PBS), followed by centrifugation. The cells were lysed and sonicated in 1X Laemmli Sample Buffer and boiled for 5 min with 5% β-mercaptoethanol (Sigma). Protein content was determined using DC protein assay (BioRad). Equal amounts of protein were loaded on a 10 or 12.5% SDS-PAGE gel, transferred onto PVDF membranes and blocked with 5% milk in PBS/0.1% Tween, followed by overnight incubation with primary antibodies. […] Appropriate HRP-conjugated secondary antibodies (Amersham) were used and detection was performed using enhanced chemi-luminescence (Pierce cat nog: 32106) and Amersham hyperfilm (GE Healthcare). Band intensities were quantified with Image-studio software.

In the case of `CC(C)(COP(=O)(O)OP(=O)(O)OC[C@H]1O[C@@H](n2cnc3c(N)ncnc32)[C@H](O)[C@@H]1OP(=O)(O)O)[C@@H](O)C(=O)NCCC(=O)NCCS` [CoA, Coenzyme A], the “rescue of HoPan-induced phenotype (larval lethality, eclosion rate)” value [1] is reported as “fully rescued”, the “lifespan with CoA” value ([2]; homozygous dPANK/fbl1 mutants, from 20 days without) is reported as 40 days and the “development with CoA” value ([2]; homozygous dPANK/fblnull mutants) is reported as “extended development from the L2 stage to early pupal development”. For the same compound, the “egg production and fertility of females” value ([3]; dPPCDC RNAi expressing females) was “improved egg-production significantly; also recorded: produced a significant number of eggs; also recorded: produced viable eggs that resulted in offspring”, the “lifespan with CoA” value ([3]; dPPCDC RNAi expressing flies, CoA added to the food, from 10 days without) was 30 days and the “development with CoA” value ([3]; homozygous dPPCDC mutants, CoA added to the food) was “extended larval development to late pupal stage”. For the same compound, the “rescue of the phenotype” value [4] was “did not result in a significant rescue”, the “rescue of COASY RNAi-induced decrease in intracellular CoA levels” value [5] was “neither rescued” and the “CoA, share of the initial concentration still present” value (3 h) was over 95%. For the same compound, the “conversion of CoA in serum” value (bovine (fetal calf)) was “converted into 4′-phosphopantetheine” and the CoA degraded (bovine (fetal calf), 30 min) was 90%.
